ChEMBL document CHEMBL5046228 (Eur J Med Chem, 2022)

Key:
[1] = molecular target: Epidermal growth factor receptor (Homo sapiens, UniProt P00533, EX19DEL); assay: Inhibition of EGFR del19 (unknown origin) using flurogenic substrate in presence of ATP by HTRF assay
[2] = molecular target: Epidermal growth factor receptor (Homo sapiens, UniProt P00533); assay: Inhibition of wild type EGFR (unknown origin) using flurogenic substrate in presence of ATP by HTRF assay
HCC827 = assay: Antiproliferative activity against human HCC827 cells expressing EGFR del119 mutant assessed as inhibition in cell viability after 72 hrs by CCK8 assay; assay type: functional, cell-based; conditions: HCC827, 72 h
A549 = assay: Antiproliferative activity against human A549 cells expressing wild type EGFR assessed as inhibition in cell viability after 72 hrs by CCK8 assay; assay type: functional, cell-based; conditions: A549, 72 h
NCI-H1299 [3] = assay: Induction of cell cycle arrest in human NCI-H1299 cells assessed as accumulation at G0/G1 phase at 0.02 uM after 36 hrs by PI staining based flow cytometry analysis (reference value: 70.2%); assay type: functional
NCI-H1299 [4] = assay: Induction of cell cycle arrest in human NCI-H1299 cells assessed as accumulation at G0/G1 phase at 0.1 uM after 36 hrs by PI staining based flow cytometry analysis (reference value: 70.2%); assay type: functional
NCI-H1299 [5] = assay: Induction of cell cycle arrest in human NCI-H1299 cells assessed as accumulation at S phase at 0.1 uM after 36 hrs by PI staining based flow cytometry analysis (reference value: 24.8%); assay type: functional
NCI-H1299 [6] = assay: Induction of cell cycle arrest in human NCI-H1299 cells assessed as accumulation at S phase at 0.5 uM after 36 hrs by PI staining based flow cytometry analysis (reference value: 24.8%); assay type: functional
NCI-H1299 [7] = assay: Induction of cell cycle arrest in human NCI-H1299 cells assessed as accumulation at G0/G1 phase at 2.5 uM after 36 hrs by PI staining based flow cytometry analysis (reference value: 70.2%); assay type: functional
NCI-H1299 [8] = assay: Induction of cell cycle arrest in human NCI-H1299 cells assessed as accumulation at G2/M phase at 2.5 uM after 36 hrs by PI staining based flow cytometry analysis (reference value: 5.6%); assay type: functional
NCI-H1975 [9] = assay: Induction of cell cycle arrest in human NCI-H1975 cells assessed as accumulation at G0/G1 phase at 0.02 uM after 36 hrs by PI staining based flow cytometry analysis (reference value: 24.2%); assay type: functional
NCI-H1975 [10] = assay: Induction of cell cycle arrest in human NCI-H1975 cells assessed as accumulation at S phase at 0.1 uM after 36 hrs by PI staining based flow cytometry analysis (reference value: 32.7 %); assay type: functional
NCI-H1975 [11] = assay: Induction of cell cycle arrest in human NCI-H1975 cells assessed as accumulation at S phase at 0.5 uM after 36 hrs by PI staining based flow cytometry analysis (reference value: 32.7 %); assay type: functional
NCI-H1975 [12] = assay: Induction of cell cycle arrest in human NCI-H1975 cells assessed as accumulation at G0/G1 phase at 2.5 uM after 36 hrs by PI staining based flow cytometry analysis (reference value: 24.2%); assay type: functional
NCI-H1975 [13] = assay: Induction of cell cycle arrest in human NCI-H1975 cells assessed as accumulation at G2/M phase at 2.5 uM after 36 hrs by PI staining based flow cytometry analysis (reference value: 43.1%); assay type: functional
NCI-H1975 [14] = assay: Induction of cell cycle arrest in human NCI-H1975 cells assessed as accumulation at S phase at 2.5 uM after 36 hrs by PI staining based flow cytometry analysis (reference value: 32.7 %); assay type: functional
NCI-H1299 [15] = assay: Induction of apoptosis in human NCI-H1299 cells assessed as increase in viable cells at 0.1 uM after 36 hrs by annexin-V-FITC/PI staining based flow cytometric analysis (reference value: 94.1%); assay type: functional
NCI-H1299 [16] = assay: Induction of apoptosis in human NCI-H1299 cells assessed as increase in late apoptotic cells at 0.1 uM after 36 hrs by annexin-V-FITC/PI staining based flow cytometric analysis (reference value: 4.39%); assay type: functional
NCI-H1299 [17] = assay: Induction of apoptosis in human NCI-H1299 cells assessed as increase in necrotic cells at 0.1 uM after 36 hrs by annexin-V-FITC/PI staining based flow cytometric analysis (reference value: 0.75%); assay type: functional
NCI-H1299 [18] = assay: Induction of apoptosis in human NCI-H1299 cells assessed as increase in early apoptotic cells at 0.5 uM after 36 hrs by annexin-V-FITC/PI staining based flow cytometric analysis (reference value: 0.79%); assay type: functional
NCI-H1299 [19] = assay: Induction of apoptosis in human NCI-H1299 cells assessed as increase in late apoptotic cells at 0.5 uM after 36 hrs by annexin-V-FITC/PI staining based flow cytometric analysis (reference value: 4.39%); assay type: functional
NCI-H1299 [20] = assay: Induction of apoptosis in human NCI-H1299 cells assessed as increase in necrotic cells at 2.5 uM after 36 hrs by annexin-V-FITC/PI staining based flow cytometric analysis (reference value: 0.75%); assay type: functional
NCI-H1975 [21] = assay: Induction of apoptosis in human NCI-H1975 cells assessed as increase in viable cells at 0.1 uM after 36 hrs by annexin-V-FITC/PI staining based flow cytometric analysis (reference value: 94.6%); assay type: functional
NCI-H1975 [22] = assay: Induction of apoptosis in human NCI-H1975 cells assessed as increase in early apoptotic cells at 0.1 uM after 36 hrs by annexin-V-FITC/PI staining based flow cytometric analysis (reference value: 1.24%); assay type: functional
NCI-H1975 [23] = assay: Induction of apoptosis in human NCI-H1975 cells assessed as increase in late apoptotic cells at 0.1 uM after 36 hrs by annexin-V-FITC/PI staining based flow cytometric analysis (reference value: 3.85%); assay type: functional
NCI-H1975 [24] = assay: Induction of apoptosis in human NCI-H1975 cells assessed as increase in necrotic cells at 0.1 uM after 36 hrs by annexin-V-FITC/PI staining based flow cytometric analysis (reference value: 0.35%); assay type: functional
NCI-H1975 [25] = assay: Induction of apoptosis in human NCI-H1975 cells assessed as increase in viable cells at 0.5 uM after 36 hrs by annexin-V-FITC/PI staining based flow cytometric analysis (reference value: 94.6%); assay type: functional
NCI-H1975 [26] = assay: Induction of apoptosis in human NCI-H1975 cells assessed as increase in late apoptotic cells at 0.5 uM after 36 hrs by annexin-V-FITC/PI staining based flow cytometric analysis (reference value: 3.85%); assay type: functional
NCI-H1975 [27] = assay: Induction of apoptosis in human NCI-H1975 cells assessed as increase in necrotic cells at 0.5 uM after 36 hrs by annexin-V-FITC/PI staining based flow cytometric analysis (reference value: 0.35%); assay type: functional
NCI-H1975 [28] = assay: Induction of apoptosis in human NCI-H1975 cells assessed as increase in early apoptotic cells at 2.5 uM after 36 hrs by annexin-V-FITC/PI staining based flow cytometric analysis (reference value: 1.24%); assay type: functional
NCI-H1975 [29] = assay: Induction of apoptosis in human NCI-H1975 cells assessed as increase in necrotic cells at 2.5 uM after 36 hrs by annexin-V-FITC/PI staining based flow cytometric analysis (reference value: 0.35%); assay type: functional
in vitro [30] = conditions: human
in vitro [31] = conditions: human; remark: listed apart in the source

Chain of Epidermal growth factor receptor (Homo sapiens, UniProt P00533, EX19DEL) (P00533 whole entry, looked up, stated change not applied): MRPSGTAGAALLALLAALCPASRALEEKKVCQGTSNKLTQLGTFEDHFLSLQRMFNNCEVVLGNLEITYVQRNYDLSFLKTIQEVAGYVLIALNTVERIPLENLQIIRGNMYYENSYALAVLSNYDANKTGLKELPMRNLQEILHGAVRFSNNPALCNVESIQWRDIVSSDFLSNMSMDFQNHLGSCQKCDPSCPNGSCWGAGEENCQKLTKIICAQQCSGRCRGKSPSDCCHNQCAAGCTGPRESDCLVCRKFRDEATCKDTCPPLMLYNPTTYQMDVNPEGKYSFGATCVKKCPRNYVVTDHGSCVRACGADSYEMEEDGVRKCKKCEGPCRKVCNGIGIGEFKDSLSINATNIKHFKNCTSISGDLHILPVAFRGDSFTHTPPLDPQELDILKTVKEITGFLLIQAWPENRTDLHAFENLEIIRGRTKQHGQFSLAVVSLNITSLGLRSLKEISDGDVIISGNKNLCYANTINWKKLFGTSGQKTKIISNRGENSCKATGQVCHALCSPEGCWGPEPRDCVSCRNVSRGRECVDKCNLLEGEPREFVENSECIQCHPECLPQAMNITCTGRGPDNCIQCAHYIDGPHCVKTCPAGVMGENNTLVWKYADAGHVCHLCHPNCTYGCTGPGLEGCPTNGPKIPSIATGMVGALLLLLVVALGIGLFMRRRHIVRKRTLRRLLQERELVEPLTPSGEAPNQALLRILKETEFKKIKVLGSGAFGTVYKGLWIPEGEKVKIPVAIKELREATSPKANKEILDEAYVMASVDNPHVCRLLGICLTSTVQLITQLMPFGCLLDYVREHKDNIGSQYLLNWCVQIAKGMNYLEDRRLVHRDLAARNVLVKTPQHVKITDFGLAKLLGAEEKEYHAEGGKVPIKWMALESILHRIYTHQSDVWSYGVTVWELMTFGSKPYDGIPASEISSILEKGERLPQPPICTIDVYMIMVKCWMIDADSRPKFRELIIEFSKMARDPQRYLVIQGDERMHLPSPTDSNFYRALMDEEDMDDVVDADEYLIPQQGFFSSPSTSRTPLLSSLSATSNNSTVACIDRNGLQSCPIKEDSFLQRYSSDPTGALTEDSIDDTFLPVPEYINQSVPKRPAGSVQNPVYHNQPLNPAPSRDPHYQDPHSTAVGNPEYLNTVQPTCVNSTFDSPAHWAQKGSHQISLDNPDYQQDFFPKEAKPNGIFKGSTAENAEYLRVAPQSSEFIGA
Chain of Epidermal growth factor receptor (Homo sapiens, UniProt P00533) (P00533 whole entry): as the sequence (P00533 whole entry, looked up, stated change not applied) above

IC50 [1]: 9.57 nM | IC50 [2]: > 10000 nM | IC50 (HCC827): 3.63 nM | IC50 (A549): > 100000 nM
Structure (SMILES): C#CCN(C)CCN(C)c1cc(OC)c(Nc2nccc(Nc3cn(C)c4ccccc34)n2)cc1NC(=O)C=C
Activity (NCI-H1299 [3]): 70.4% | Activity (NCI-H1299 [4]): 70.6% | Activity (NCI-H1299 [5]): 23.7% | Activity (NCI-H1299 [6]): 25.6% | Activity (NCI-H1299 [7]): 67.5% | Activity (NCI-H1299 [8]): 7.8% | Activity (NCI-H1975 [9]): 22.5% | Activity (NCI-H1975 [10]): 22.7% | Activity (NCI-H1975 [11]): 19.1% | Activity (NCI-H1975 [12]): 17% | Activity (NCI-H1975 [13]): 64.6% | Activity (NCI-H1975 [14]): 18.4% | Activity (NCI-H1299 [15]): 92.6% | Activity (NCI-H1299 [16]): 5.69% | Activity (NCI-H1299 [17]): 0.63% | Activity (NCI-H1299 [18]): 1.01% | Activity (NCI-H1299 [19]): 5.63% | Activity (NCI-H1299 [20]): 0.6% | Activity (NCI-H1975 [21]): 92.2% | Activity (NCI-H1975 [22]): 4.45% | Activity (NCI-H1975 [23]): 3.3% | Activity (NCI-H1975 [24]): 0.019% | Activity (NCI-H1975 [25]): 79.2% | Activity (NCI-H1975 [26]): 8.52% | Activity (NCI-H1975 [27]): 0.021% | Activity (NCI-H1975 [28]): 45.4% | Activity (NCI-H1975 [29]): 0.012% | selectivity ratio (in vitro [30]): 38800 | selectivity ratio (in vitro [31]): 27500
